Experiments:
CFTR = biological target: T1, CFTR (Homo sapiens, UniProt P13569, DEL508-508); assay: TECC24 AUC fold over DMSO @10 μM, CFTR-mediated transepithelial chloride transport in CF-HBE cells; type: cell-based; conditions: test agent AUC divided by DMSO vehicle AUC, primary CF-HBE cells, ΔF508 homozygous donor, 48 hours incubation
T1 construct: Primary human bronchial epithelial cells from a ΔF508 homozygous CF donor; host or cells: primary human bronchial epithelial cells (CF-HBE), ΔF508 homozygous donor
T1 sequence (P13569 with tags, fused parts or gaps DEL508-508): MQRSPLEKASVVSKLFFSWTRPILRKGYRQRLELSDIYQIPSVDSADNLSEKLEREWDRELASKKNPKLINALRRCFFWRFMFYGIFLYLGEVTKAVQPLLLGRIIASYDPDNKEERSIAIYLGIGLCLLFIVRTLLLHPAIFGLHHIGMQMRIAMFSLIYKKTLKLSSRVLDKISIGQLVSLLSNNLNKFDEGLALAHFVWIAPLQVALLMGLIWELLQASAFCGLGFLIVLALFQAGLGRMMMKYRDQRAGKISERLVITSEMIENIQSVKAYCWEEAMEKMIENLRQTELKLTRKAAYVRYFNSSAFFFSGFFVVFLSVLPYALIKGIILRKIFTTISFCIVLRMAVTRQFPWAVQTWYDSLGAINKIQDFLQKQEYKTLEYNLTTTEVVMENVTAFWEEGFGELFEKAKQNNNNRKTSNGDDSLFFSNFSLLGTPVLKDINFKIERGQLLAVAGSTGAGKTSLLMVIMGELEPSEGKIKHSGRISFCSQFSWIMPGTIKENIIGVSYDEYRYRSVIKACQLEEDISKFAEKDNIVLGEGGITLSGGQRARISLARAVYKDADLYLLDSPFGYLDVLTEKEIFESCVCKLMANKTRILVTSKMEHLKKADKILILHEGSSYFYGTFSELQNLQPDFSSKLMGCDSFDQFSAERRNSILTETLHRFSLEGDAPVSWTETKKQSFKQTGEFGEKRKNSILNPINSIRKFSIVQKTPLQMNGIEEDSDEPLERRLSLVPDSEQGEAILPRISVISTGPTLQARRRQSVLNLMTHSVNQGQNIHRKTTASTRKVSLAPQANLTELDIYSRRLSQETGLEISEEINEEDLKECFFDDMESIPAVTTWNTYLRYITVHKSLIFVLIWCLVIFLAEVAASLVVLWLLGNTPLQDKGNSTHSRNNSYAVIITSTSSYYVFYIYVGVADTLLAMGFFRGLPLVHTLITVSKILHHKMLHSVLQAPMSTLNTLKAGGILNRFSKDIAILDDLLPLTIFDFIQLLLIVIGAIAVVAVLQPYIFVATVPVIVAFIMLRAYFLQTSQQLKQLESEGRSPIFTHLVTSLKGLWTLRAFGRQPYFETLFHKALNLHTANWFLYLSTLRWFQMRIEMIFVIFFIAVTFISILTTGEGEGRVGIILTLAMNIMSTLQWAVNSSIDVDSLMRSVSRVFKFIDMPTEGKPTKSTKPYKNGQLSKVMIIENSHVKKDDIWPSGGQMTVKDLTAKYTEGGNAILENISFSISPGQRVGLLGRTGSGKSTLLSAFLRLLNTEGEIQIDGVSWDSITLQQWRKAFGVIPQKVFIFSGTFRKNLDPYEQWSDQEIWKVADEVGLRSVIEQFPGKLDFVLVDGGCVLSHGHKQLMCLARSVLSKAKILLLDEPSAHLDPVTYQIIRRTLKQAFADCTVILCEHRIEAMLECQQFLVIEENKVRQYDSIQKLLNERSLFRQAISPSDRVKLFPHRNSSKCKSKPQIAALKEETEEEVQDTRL
Procedure, shortened: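 Value is ratio of test-agent to DMSO AUC of equivalent transepithelial Cl− current, integrated from forskolin (10 μM) stimulation to CFTR inhibitor-172 (20 μM) block, with benzamil 10 μM present. CF-HBE (ΔF508/ΔF508) cultures had 48 h compound exposure at 10 μM, 36.5° C before recording.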

NBD1 = biological target: T2, NBD1 (Homo sapiens, UniProt P13569); assay: Aggregation analysis using differential static light scattering (DSLS), thermal stability of NBD1 (ΔTagg); type: binding; conditions: ΔTagg versus DMSO control, NBD1 0.2 mg/ml
T2 construct: Purified recombinant NBD1 was produced using previously described methods; made in house
T2 sequence (P13569 423-646 limits assumed): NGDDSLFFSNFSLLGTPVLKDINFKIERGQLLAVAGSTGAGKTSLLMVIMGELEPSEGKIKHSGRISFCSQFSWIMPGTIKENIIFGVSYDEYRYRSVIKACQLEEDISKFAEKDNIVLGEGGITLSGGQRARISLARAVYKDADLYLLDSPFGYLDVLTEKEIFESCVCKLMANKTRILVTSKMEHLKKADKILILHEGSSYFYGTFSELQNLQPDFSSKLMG
Procedure, shortened: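 Purified recombinant NBD1 at 0.2 mg/ml in Tris buffer pH7.6 with 2 mM ATP, 5 mM MgCl2, 2 mM DTT and 1% glycerol was mixed with DMSO-dissolved compounds under mineral oil. Plates were heated at 1° C. per minute to 70° C., light scattering imaged every 0.5° C.; Tagg from curve inflection, minus DMSO-control mean.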

| SMILES | TECC (AUC, 10 μM) (CFTR) | DSLS 3D (100 μM ΔT) (NBD1) |
| --- | --- | --- |
| Cn1nc2nc1-c1cc(ccc1F)Oc1c(F)cc3[nH]ccc3c1CCS(=O)(=O)CC(F)(F)C(C)(C)CCC2(C)c1cccc(CCC(=O)O)c1 (single isomer, unassigned) [Compound 102B, 3-[3-[10,10,22,28-tetrafluoro-3,6,9,9-tetramethyl-12,12-dioxo-24-oxa-12lambda6-thia-3,4,19,30-tetrazapentacyclo[23.3.1.12,5.015,23.016,20]triaconta-1(29),2(30),4,15,17,20,22,25,27-nonaen-6-yl]phenyl]propanoic acid] | B (a value between 12-20 is marked “B”) | B (a value above 5 °C and less than or equal to 10 °C is marked “B”) |
| CC(Cc1cccc(C2(CF)CCCC(C)(C)CS(=O)(=O)CCc3c(c(F)cc4[nH]ccc34)Oc3ccc(F)c(c3)-c3nc2nn3C)c1)C(=O)O (single isomer, unassigned) [Compound 108A, 3-[3-[22,28-difluoro-6-(fluoromethyl)-3,10,10-trimethyl-12,12-dioxo-24-oxa-12λ6-thia-3,4,19,30-tetrazapentacyclo[23.3.1.12,5.015,23.016,20]triaconta-1(29),2(30),4,15,17,20,22,25,27-nonaen-6-yl]phenyl]-2-methyl-propanoic acid] | A (a TECC value less than 12 is marked “A”) | A (an ΔTagg value less than or equal to 5 °C is marked “A”) |
| CC(Cc1cccc(C2(CF)CCCC(C)(C)CS(=O)(=O)CCc3c(c(F)cc4[nH]ccc34)Oc3ccc(F)c(c3)-c3nc2nn3C)c1)C(=O)O (single isomer, unassigned) [Compound 108B, 3-[3-[22,28-difluoro-6-(fluoromethyl)-3,10,10-trimethyl-12,12-dioxo-24-oxa-12λ6-thia-3,4,19,30-tetrazapentacyclo[23.3.1.12,5.015,23.016,20]triaconta-1(29),2(30),4,15,17,20,22,25,27-nonaen-6-yl]phenyl]-2-methyl-propanoic acid] | C (a value between 20 and 80 is marked “C”) | A (an ΔTagg value less than or equal to 5 °C is marked “A”) |
| Cn1nc2nc1-c1cc(ccc1F)Oc1c(F)cc3[nH]ccc3c1Cn1cc(cn1)C(C)(C)CS(=O)(=O)CCC2(C)c1cccc(CCC(=O)O)c1 (single isomer, unassigned) [Compound 109A, 3-[3-(24,30-difluoro-3,6,11,11-tetramethyl-9,9-dioxo-26-oxa-9lambda6-thia-3,4,14,15,21,33-hexazahexacyclo[25.3.1.12,5.112,15.017,25.018,22]tritriaconta-1(31),2(33),4,12(32),13,17,19,22,24,27,29-undecaen-6-yl)phenyl]propanoic Acid] | C (a value between 20 and 80 is marked “C”) | C (a value greater than 10 °C and less than or equal to 25 °C is marked “C”) |
| Cn1nc2nc1-c1cc(ccc1F)Oc1c(F)cc3[nH]ccc3c1Cn1cc(cn1)C(C)(C)CS(=O)(=O)CCC2(C)c1cccc(CCC(=O)O)c1 (single isomer, unassigned) [Compound 109B, 3-[3-(24,30-difluoro-3,6,11,11-tetramethyl-9,9-dioxo-26-oxa-9lambda6-thia-3,4,14,15,21,33-hexazahexacyclo[25.3.1.12,5.112,15.017,25.018,22]tritriaconta-1(31),2(33),4,12(32),13,17,19,22,24,27,29-undecaen-6-yl)phenyl]propanoic Acid] | A (a TECC value less than 12 is marked “A”) | A (an ΔTagg value less than or equal to 5 °C is marked “A”) |
| CC(Cc1cccc(C2(C)COCC(C)(C)CS(=O)(=O)CCc3c(c(F)cc4[nH]ccc34)Oc3ccc(F)c(c3)-c3nc2nn3C)c1)C(=O)O (single isomer, unassigned) [Compound 113A] | A (a TECC value less than 12 is marked “A”) | C (a value greater than 10 °C and less than or equal to 25 °C is marked “C”) |
